Drawing on ChEMBL document CHEMBL1641582, “Synthesis and in vitro evaluation of 2-amino-4-N-piperazinyl-6-(3,4-dimethoxyphenyl)-pteridines as dual immunosuppressive and anti-inflammatory agents” (Bioorg Med Chem Lett, 2011), this text covers IC50 for 41 molecules.

pIC50: −log10 of the molar value.

One assay concerns PBMC. The experiment in a line: Antiinflammatory activity in human PBMC assessed as inhibition of LPS-induced TNFalpha production. It counts as functional, cell-based.
Assay [1] can be described thus: Immunosuppressive activity in human T cells assessed as inhibition of LFA1-mediated cell proliferation by mixed lymphocyte reaction assay. It counts as functional, cell-based.

With `CCOc1nc(N)nc2ncc(-c3ccc(C(F)(F)F)cc3)nc12`, the pIC50 (usually −log10 of the IC50, conventionally taken in molar units) was below 5.00 in the assay on PBMC and 5.00 in assay [1].

With `CCOc1nc(N)nc2ncc(-c3ccc(F)c(F)c3)nc12`, the pIC50 (in the assay with PBMC; in assay [1]) was below 5.00 in each case.

For `CCOc1nc(N)nc2ncc(-c3cccc(OC)c3)nc12`, the negative-log IC50 (pIC50) with PBMC is 5.00; in assay [1] it was 5.08.

In the case of `CCOc1nc(N)nc2ncc(-c3ccc(C#N)cc3)nc12`, the pIC50 (in the assay with PBMC; in assay [1]) was below 5.00 throughout.

In the case of `CCOc1nc(N)nc2ncc(-c3ccc(CC)cc3)nc12`, the values for the negative-log IC50 (pIC50) (in the assay with PBMC; in assay [1]) were 5.07 and 5.09, respectively.

In the case of `CCOc1nc(N)nc2ncc(-c3ccc(Cl)c(Cl)c3)nc12`, the pIC50 (in the assay on PBMC; in assay [1]) was below 5.00 throughout.

Take `CCOc1nc(N)nc2ncc(-c3ccc(OC)cc3)nc12`: the pIC50 was 5.35 in the assay on PBMC and below 5.00 in assay [1].

As to `CC(C)Oc1nc(N)nc2ncc(-c3ccc(C(F)(F)F)cc3)nc12`, the pIC50 with PBMC is 5.04; in assay [1] it was below 5.00.

`CC(C)Oc1nc(N)nc2ncc(-c3ccc(F)c(F)c3)nc12`: the pIC50 was 5.18 with PBMC and 5.00 in assay [1].

As for `COc1ccc(-c2cnc3nc(N)nc(OC(C)C)c3n2)cc1`, the negative logarithm of the IC50 (pIC50) is 5.21 with PBMC and below 5.00 in assay [1].

On to `CCOc1ccc(-c2cnc3nc(N)nc(OC(C)C)c3n2)cc1`, for which the negative-log IC50 (pIC50) (in the assay on PBMC; in assay [1]) was 5.00 each time.

With `Cc1ccc(-c2cnc3nc(N)nc(OC(C)C)c3n2)cc1C`, the pIC50 is 5.17 in the assay with PBMC and 5.00 in assay [1].

With `COc1ccc(-c2cnc3nc(N)nc(OC(C)C)c3n2)cc1OC`, the negative logarithm of the IC50 (pIC50) is 5.64 with PBMC and 6.40 in assay [1].

As for `CC(C)Oc1nc(N)nc2ncc(-c3ccc(C#N)cc3)nc12`, the negative-log IC50 (pIC50) is 5.20 in the assay on PBMC and below 5.00 in assay [1].

For the molecule `COc1ccc(-c2cnc3nc(N)nc(NCc4ccccc4)c3n2)cc1OC`, the negative logarithm of the IC50 (pIC50) with PBMC was 5.19; in assay [1], 4.89.

For the molecule `COc1ccc(-c2cnc3nc(N)nc(NCCc4ccccc4)c3n2)cc1OC`, the pIC50 was 5.15 in the assay with PBMC and 5.22 in assay [1].

As to `COc1ccc(-c2cnc3nc(N)nc(NC4CCCC4)c3n2)cc1OC`, the pIC50 in the assay with PBMC is 6.22; in assay [1], 6.10.

For `COc1ccc(-c2cnc3nc(N)nc(NC(C)C)c3n2)cc1OC`, the figures for the pIC50 (in the assay on PBMC; in assay [1]) were 6.52 and 6.22, respectively.

In the case of `COc1ccc(-c2cnc3nc(N)nc(N4CCC(C)CC4)c3n2)cc1OC`, the pIC50 in the assay with PBMC was 6.52; in assay [1] it was 6.10.

`COc1ccc(-c2cnc3nc(N)nc(NCc4cccs4)c3n2)cc1OC`: the pIC50 in the assay on PBMC is 5.14; in assay [1] it was 5.39.

Take `COc1ccc(-c2cnc3nc(N)nc(N4CCOCC4)c3n2)cc1OC`: the negative-log IC50 (pIC50) was 6.40 in the assay on PBMC and 7.00 in assay [1].

Consider `COc1ccc(-c2cnc3nc(N)nc(N4CCSCC4)c3n2)cc1OC`, for which the figures for the pIC50 (in the assay on PBMC; in assay [1]) were 6.30 and 6.40, respectively.

On to `COc1ccc(-c2cnc3nc(N)nc(N4CCN(c5ccccc5)CC4)c3n2)cc1OC`, for which the negative-log IC50 (pIC50) in the assay on PBMC was 7.30; in assay [1], 6.40.

Take `COc1ccc(-c2cnc3nc(N)nc(N4CCN(c5ccc(C)cc5)CC4)c3n2)cc1OC`: the negative-log IC50 (pIC50) was 8.00 with PBMC and 6.52 in assay [1].

Take `COc1ccc(-c2cnc3nc(N)nc(N4CCN(c5cc(Cl)cc(Cl)c5)CC4)c3n2)cc1OC`: the pIC50 was 6.30 with PBMC and 5.47 in assay [1].

Consider `COc1ccc(-c2cnc3nc(N)nc(N4CCN(c5ccc(F)cc5)CC4)c3n2)cc1OC`, for which the pIC50 in the assay with PBMC was 7.30; in assay [1] it was 7.00.

On to `COc1ccc(-c2cnc3nc(N)nc(N4CCN(Cc5ccccc5)CC4)c3n2)cc1OC`, for which, in the assay on PBMC, the negative logarithm of the IC50 (pIC50) is 7.05.

For the molecule `COc1ccc(-c2cnc3nc(N)nc(N4CCN(Cc5c(Cl)cccc5Cl)CC4)c3n2)cc1OC`, the pIC50 with PBMC is 6.15; in assay [1], 5.12.

On to `COc1ccc(-c2cnc3nc(N)nc(N4CCN(Cc5ccccc5F)CC4)c3n2)cc1OC`, for which the negative logarithm of the IC50 (pIC50) with PBMC was 6.70; in assay [1] it was 6.15.

On to `COc1ccc(-c2cnc3nc(N)nc(N4CCN(Cc5ccc(C(C)(C)C)cc5)CC4)c3n2)cc1OC`, for which the pIC50 with PBMC was 6.15; in assay [1], 5.37.

As for `COc1ccc(-c2cnc3nc(N)nc(N4CCN(C(=O)c5ccccc5)CC4)c3n2)cc1OC`, the negative logarithm of the IC50 (pIC50) (in the assay with PBMC; in assay [1]) was 6.40 throughout.

Take `COc1ccc(-c2cnc3nc(N)nc(N4CCN(C(=O)CCc5ccccc5)CC4)c3n2)cc1OC`: the pIC50 is 8.00 with PBMC and 7.00 in assay [1].

Take `COc1ccc(-c2cnc3nc(N)nc(N4CCN(C(=O)COc5ccccc5)CC4)c3n2)cc1OC`: the negative logarithm of the IC50 (pIC50) in the assay with PBMC is 7.10; in assay [1], 8.40.

Consider `COc1ccc(-c2cnc3nc(N)nc(N4CCN(C(=O)COc5ccc(Cl)cc5)CC4)c3n2)cc1OC`, for which the values for the pIC50 (with PBMC; in assay [1]) were 7.11 and 9.30, respectively.

With `COc1ccc(-c2cnc3nc(N)nc(N4CCN(C(=O)Nc5ccccc5)CC4)c3n2)cc1OC`, the pIC50 in the assay on PBMC was 7.05; in assay [1], 8.47.

For the molecule `COc1ccc(-c2cnc3nc(N)nc(N4CCN(C(=O)Nc5ccc(F)cc5)CC4)c3n2)cc1OC`, the negative logarithm of the IC50 (pIC50) in the assay with PBMC was 6.29; in assay [1], 8.15.

With `COc1ccc(-c2cnc3nc(N)nc(N4CCN(C(=O)Nc5ccc(C)cc5)CC4)c3n2)cc1OC`, the pIC50 with PBMC was 6.37; in assay [1], 9.10.

Regarding `COc1ccc(-c2cnc3nc(N)nc(N4CCN(C(=O)Nc5ccc(C#N)cc5)CC4)c3n2)cc1OC`, the figures for the negative-log IC50 (pIC50) (in the assay with PBMC; in assay [1]) were 6.20 and 7.13, respectively.

Take `COc1ccc(-c2cnc3nc(N)nc(N4CCN(C(=O)Nc5cccc(C)c5)CC4)c3n2)cc1OC`: the pIC50 with PBMC was 7.00; in assay [1], 8.15.

With `COc1ccc(-c2cnc3nc(N)nc(N4CCN(C(=O)NCc5ccccc5)CC4)c3n2)cc1OC`, in assay [1], the pIC50 is 7.74.

`COc1ccc(-c2cnc3nc(N)nc(N4CCN(C(=O)NCc5ccc(F)cc5)CC4)c3n2)cc1OC`: the values for the negative-log IC50 (pIC50) (in the assay with PBMC; in assay [1]) were 6.15 and 7.43, respectively.
